Experimental data: US20230295152A1 (SENDA BIOSCIENCES, INC., priority 2019, published 2023)

Assays:
Assay type in all cases: in vitro ADME
[1] = Hepatocyte Stability Assay, human; details: cryopreserved hepatocytes in suspension; human hepatocytes; read-out: Human hepatocyte clearance
[2] = Hepatocyte Stability Assay, rat; details: rat hepatocytes; also: tested at 1 µM
Protocol: • Preparation of working solutions: 10 mM stock solutions of test compound and positive control were prepared in DMSO. In separate conical tubes, the 10 mM solution of test compound and the positive control were diluted to 100 μM by combining 198 μL of 50% acetonitrile/50% water and 2 μL of 10 mM stock.
Preparation of Hepatocytes: Incubation medium (William's E Medium supplemented with GlutaMAX) and hepatocyte thawing medium were placed in a 37° C. water bath and allowed warming for at least 15 minutes prior to use. A vial of cryopreserved hepatocytes was transferred from storage, ensuring that vials remained at cryogenic temperatures until thawing process ensued. Cells were thawed by placing the vial in a 37° C. water bath and gently shaking the vials for 2 minutes. After thawing was completed, vial was sprayed with 70% ethanol and transferred to a biosafety cabinet. Wide-bore pipette tip were used to transfer hepatocytes into 50 mL conical tube containing thawing medium. The 50 mL conical tube were placed into a centrifuge and spun at 100 g for 10 minutes. Upon completion of spin, thawing medium was aspirated and resuspended hepatocytes in enough incubation medium to yield ˜1.5×10^6 cells/mL. Using an AO/PI Staining, cells were counted and the viable cell density was determined. Cells with poor viability (<75% viability) were determined to be not acceptable for use. Cells were diluted with incubation medium to a working cell density of 0.5×10^6 viable cells/mL.
Procedure for Stability Determination: 198 μL of hepatocytes were pipetted into each wells of a 96-well non-coated plate. The plate was placed in the incubator to allow the hepatocytes to warm for 10 minutes. 2 μL of the 100 μM test compound or positive control solutions were pipetted into respective wells of the 96-well non-coated plate to start the reaction. The plate was returned to the incubator for the designed time points. Well contents was transferred in 25 μL aliquots at time points of 0, 15, 30, 60, 90 and 120 minutes. The aliquots were then mixed with 6 volumes (150 μL) of acetonitrile containing internal standard, IS (100 nM alprazolam, 200 nM caffeine and 100 nM tolbutamide) to terminate the reaction. The mixture was vortex for 5 minutes. Samples were centrifuged for 45 minutes at 3,220 g. An aliquot of 100 μL of the supernatant was diluted by 100 μL ultra-pure water, and the mixture was used for LC/MS/MS analysis. All incubations were performed in duplicate.
Data Analysis: All calculations were carried out using Microsoft Excel. Peak areas were determined from extracted ion chromatograms. In vitro half-life (t1/2) of parent compound was determined by regression analysis of the percent parent disappearance vs. time curve.
The in vitro half-life (in vitro t1/2) was determined from the slope value:
Conversion of the in vitro t1/2 (in min) into the in vitro intrinsic clearance (in vitro CLint, in μL/min/1×10^6 cells) was done using the following equation (mean of duplicate determinations):
V=incubation volume(0.2 mL);
N=number of hepatocytes per well(0.1×10^6 cells).
“+++” indicates a CLint value less than 20 mL/min/Kg, “++” indicates a CLint between 20 and 50 mL/min/Kg, and “+” indicates an CLint above 50 mL/min/Kg.

[3] = Plasma Protein Binding with Ultracentrifugation Method, human; details: human plasma, 1.0 μM; read-out: Human plasma protein binding (% bound)
Protocol: The frozen plasma (stored at −80° C.) was thawed in a 37° C. water bath, followed by centrifugation at 3,220 g for 10 minutes to remove clots. The supernatant was removed into a new tube as the spun plasma. The spun plasma was pre-warmed in a 37° C. water bath for 10 minutes. The stock solutions of test compounds were diluted to 200 μM in DMSO, and then spiked into the plasma. Duplicate samples were prepared. The final concentration of compound was 1.0 μM. The final concentration of organic solvent was 0.5%. Warfarin was used as positive control in the assay. 1.0 mL of the spiked plasma was transferred to a new balance ultracentrifuge tube. Samples were incubated at 37° C., 5% CO2 for 30 minutes. After incubation, the balance ultracentrifuge tubes were centrifuged at 600,000 g for 5.5 hours at 37° C. After centrifugation, 50 μL solution was removed from the center of the ultracentrifuge tubes as the post-ultracentrifugation samples, followed by the addition of 50 μL blank plasma and 400 μL quench solution (acetonitrile containing internal standards (IS, 100 nM Alprazolam, 500 nM Labetalol and 2 μM Ketoprofen)) to precipitate protein and release compounds. Samples were vortexed for 2 minutes, followed by centrifugation at 20,000 g for 15 minutes at room temperature. The supernatant was diluted with ultrapure water and then used for LC-MS/MS analysis. Stability samples was prepared by transferring 50 μL of the spiked plasma to 0.6 mL tubes and incubated at 37° C., 5% CO2 for 0.5 and 6 hours. After incubation, 50 μL PBS (100 mM, pH7.4) and 400 μL quench solution were added to the stability samples. And then stability samples were treated the same way as the post-ultracentrifugation samples. The supernatant was diluted with ultrapure water and then used for LC-MS/MS analysis. 0.5 hour time point samples were also used as no-spun controls. Time 0 samples were prepared by transferring 50 μL spiked plasma to 0.6 mL tubes containing 50 μL PBS, followed by the addition of 400 μL quench solution to precipitate protein and release compound. And then these samples were treated the same way as the post-ultracentrifugation samples. The supernatant was diluted with ultrapure water and then used for LC-MS/MS analysis.
Data Analysis: All calculations were carried out using Microsoft Excel. The concentrations of test compound in plasma samples and post-ultracentrifugation plasma was determined from peak areas. The percentages of test compound bound was calculated as follows: […]
“+++” indicates a % bound value less than 50, “++” indicates a % bound value between 50 and 75, and “+” indicates a % bound value above 75.

| Structure (SMILES) | CLint scaled at 1 μM [1] | fraction unbound at 30 min, 1 μM [3] | Rat hepatocyte clearance [2] |
| --- | --- | --- | --- |
| C[C@@H](CO)n1cnc2c(-c3cncc(F)c3)nc(-c3ccc(OC(F)(F)F)cc3)cc2c1=O [Compound 1, (S)-8-(5-fluoropyridin-3-yl)-3-(1-hydroxypropan-2-yl)-6-(4-(trifluoromethoxy)phenyl)pyrido[3,4-d]pyrimidin-4(3H)-one] | < 1.2 L/h/kg | < 0.25 | ++ (“++” indicates a CLint between 20 and 50 mL/min/Kg) |
| C[C@@H](CO)n1cnc2c(-c3cccc(F)c3)nc(-c3ccc(C(F)(F)F)nc3)cc2c1=O [Compound 8] | < 1.2 L/h/kg | < 0.25 | ++ (“++” indicates a CLint between 20 and 50 mL/min/Kg) |
| C[C@@H](n1cnc2c(-c3cccnc3)nc(-c3ccc(Cl)cc3)cc2c1=O)C(C)(C)O [Compound 33] | < 1.2 L/h/kg | < 0.25 | ++ (“++” indicates a CLint between 20 and 50 mL/min/Kg) |
| O=c1c2cc(-c3ccc(C(F)(F)F)cn3)nc(-c3cccnc3)c2ncn1[C@H]1COC[C@@H]1O [Compound 139, 3-((3S,4R)-4-hydroxytetrahydrofuran-3-yl)-8-(pyridin-3-yl)-6-(5-(trifluoromethyl)pyridin-2-yl)pyrido[3,4-d]pyrimidin-4(3H)-one] | < 1.2 L/h/kg | – | – |
| O=c1c2cc(-c3ccc(C(F)(F)F)cn3)nc(-c3cccnc3)c2ncn1[C@@H]1COC[C@H]1O [Compound 140, 3-((3R,4S)-4-hydroxytetrahydrofuran-3-yl)-8-(pyridin-3-yl)-6-(5-(trifluoromethyl)pyridin-2-yl)pyrido[3,4-d]pyrimidin-4(3H)-one] | < 1.2 L/h/kg | – | – |
| O=c1c2cc(-c3ccc(C(F)(F)F)cn3)nc(-c3cccnc3)c2ncn1[C@H]1COC[C@H]1O [Compound 145, 3-((3S,4S)-4-hydroxytetrahydrofuran-3-yl)-8-(pyridin-3-yl)-6-(5-(trifluoromethyl)pyridin-2-yl)pyrido[3,4-d]pyrimidin-4(3H)-one] | < 1.2 L/h/kg | – | – |
| O=c1c2cc(-c3ccc(Cl)cc3)nc(-c3cccnc3)c2ncn1[C@@H]1COC[C@H]1O [Compound 152, 6-(4-chlorophenyl)-3-((3R,4S)-4-hydroxytetrahydrofuran-3-yl)-8-(pyridin-3-yl)pyrido[3,4-d]pyrimidin-4(3H)-one] | 1.2 to 3 L/h/kg | – | – |
| CC(C)(O)Cn1cnc2c(-n3ccnc3)nc(-c3ccc(C(F)(F)F)cn3)cc2c1=O [Compound 160, 3-(2-hydroxy-2-methylpropyl)-8-(1H-imidazol-1-yl)-6-(5-(trifluoromethyl)pyridin-2-yl)pyrido[3,4-d]pyrimidin-4(3H)-one] | < 1.2 L/h/kg | – | – |
| C[C@@H](CO)n1cnc2c(-n3ccnc3)nc(-c3ccc(C(F)(F)F)cn3)cc2c1=O [Compound 162, (S)-3-(1-hydroxypropan-2-yl)-8-(1H-imidazol-1-yl)-6-(5-(trifluoromethyl)pyridin-2-yl)pyrido[3,4-d]pyrimidin-4(3H)-one] | < 1.2 L/h/kg | – | – |
| C[C@@H](CO)n1cnc2c(N3CCCCC3)nc(-c3ccc(Cl)cc3)cc2c1=O [Compound 177, (S)-6-(4-chlorophenyl)-3-(1-hydroxypropan-2-yl)-8-(piperidin-1-yl)pyrido[3,4-d]pyrimidin-4(3H)-one] | 1.2 to 3 L/h/kg | – | – |
| Cc1nc(-c2cc3c(=O)n([C@@H](C)CO)cnc3c(-c3cccnc3)n2)cs1 [Compound 183, (S)-3-(1-hydroxypropan-2-yl)-6-(2-methylthiazol-4-yl)-8-(pyridin-3-yl)pyrido[3,4-d]pyrimidin-4(3H)-one] | < 1.2 L/h/kg | – | – |

The next lines start with results.

| CLint scaled at 1 μM [1] | fraction unbound at 30 min, 1 μM [3] | Structure (SMILES) | Rat hepatocyte clearance [2] |
| --- | --- | --- | --- |
| < 1.2 L/h/kg | < 0.25 | C[C@@H](CO)n1cnc2c(-c3cnn(C)c3)nc(-c3ccc(Cl)cc3)cc2c1=O [Compound 27] | +++ (“+++” indicates a CLint value less than 20 mL/min/Kg) |
| < 1.2 L/h/kg | – | C[C@@H](n1cnc2c(-c3cnn(C)c3)nc(-c3ccc(Cl)cc3)cc2c1=O)C(C)(C)O [Compound 31] | ++ (“++” indicates a CLint between 20 and 50 mL/min/Kg) |
| < 1.2 L/h/kg | – | Cn1cc(-c2nc(-c3ccc(C4CC4)nc3)cc3c(=O)n(C[C@H](O)C(F)(F)F)cnc23)cn1 [Compound 136, (S)-6-(6-cyclopropylpyridin-3-yl)-8-(1-methyl-1H-pyrazol-4-yl)-3-(3,3,3-trifluoro-2-hydroxypropyl)pyrido[3,4-d]pyrimidin-4(3H)-one] | – |
| < 1.2 L/h/kg | – | C[C@H](O)Cn1cnc2c(-c3cnn(C)c3)nc(-c3ccc(C(F)(F)F)cn3)cc2c1=O [Compound 142, (S)-3-(2-hydroxypropyl)-8-(1-methyl-1H-pyrazol-4-yl)-6-(5-(trifluoromethyl)pyridin-2-yl)pyrido[3,4-d]pyrimidin-4(3H)-one] | – |
| < 1.2 L/h/kg | – | C[C@H](O)Cn1cnc2c(-c3cccnc3)nc(-c3ccc(C(F)(F)F)cn3)cc2c1=O [Compound 143, (S)-3-(2-hydroxypropyl)-8-(pyridin-3-yl)-6-(5-(trifluoromethyl)pyridin-2-yl)pyrido[3,4-d]pyrimidin-4(3H)-one] | – |
| < 1.2 L/h/kg | – | C[C@@H](O)Cn1cnc2c(-c3cccnc3)nc(-c3ccc(C(F)(F)F)cn3)cc2c1=O [Compound 144, (R)-3-(2-hydroxypropyl)-8-(pyridin-3-yl)-6-(5-(trifluoromethyl)pyridin-2-yl)pyrido[3,4-d]pyrimidin-4(3H)-one] | – |
| < 1.2 L/h/kg | – | Cn1cc(-c2nc(-c3ccc(C(F)(F)F)cn3)cc3c(=O)n([C@H]4COC[C@H]4O)cnc23)cn1 [Compound 151, 3-((3S,4S)-4-hydroxytetrahydrofuran-3-yl)-8-(1-methyl-1H-pyrazol-4-yl)-6-(5-(trifluoromethyl)pyridin-2-yl)pyrido[3,4-d]pyrimidin-4(3H)-one] | – |
| < 1.2 L/h/kg | – | O=c1c2cc(-c3ccc(C(F)(F)F)cn3)nc(-c3cccnc3)c2ncn1C[C@@H](O)C(F)(F)F [Compound 154, (R)-8-(pyridin-3-yl)-3-(3,3,3-trifluoro-2-hydroxypropyl)-6-(5-(trifluoromethyl)pyridin-2-yl)pyrido[3,4-d]pyrimidin-4(3H)-one] | – |
| < 1.2 L/h/kg | – | CNC(=O)[C@H](C)n1cnc2c(-c3cccnc3)nc(-c3ccc(C(F)(F)F)nc3)cc2c1=O [Compound 156, (S)—N-methyl-2-(4-oxo-8-(pyridin-3-yl)-6-(6-(trifluoromethyl)pyridin-3-yl)pyrido[3,4-d]pyrimidin-3(4H)-yl)propanamide] | – |
